# In PubChem BioAssay (NCI):
#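 Test compounds were applied to cells in 96-well plates for 48 hours at 5 doses. Abbreviation: GI50, concentration required for 50% inhibition of growth. TGI marks complete inhibition of growth.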
# What was measured:
# Experiment in all cases: DTP human tumour cell line panel, 48 h
# BT-549 breast = system: BT-549 breast
# HS 578T breast = system: HS 578T breast
# MDA-MB-231 breast = system: MDA-MB-231 breast
# NCI/ADR-RES ovarian = system: NCI/ADR-RES ovarian
# PC-3 prostate = system: PC-3 prostate
# DMS 114 small cell lung = system: DMS 114 small cell lung
# DMS 273 small cell lung = system: DMS 273 small cell lung
# LXFL 529 NSCLC = system: LXFL 529 NSCLC
# SNB-78 CNS = system: SNB-78 CNS
SMILES,GI50 (BT-549 breast) [nM],TGI (BT-549 breast) [µM],GI50 (HS 578T breast) [µM],TGI (HS 578T breast) [µM],GI50 (MDA-MB-231 breast) [nM],TGI (MDA-MB-231 breast) [µM],GI50 (NCI/ADR-RES ovarian) [µM],TGI (NCI/ADR-RES ovarian) [µM],GI50 (PC-3 prostate) [nM],TGI (PC-3 prostate) [µM],TGI (DMS 114 small cell lung) [µM],TGI (DMS 273 small cell lung) [µM],TGI (LXFL 529 NSCLC) [µM],TGI (SNB-78 CNS) [µM]
C=C1C(=O)O[C@H]2[C@H]1CC/C(Cn1cc(-c3ccc(F)cc3)nn1)=C\CC[C@@]1(C)O[C@@H]21,838,2.13,3.68,22.6,1220,2.65,3.05,14,2000,4.07,,,,
ClCc1ccccc1Cn1cnc2c(Cl)ncnc21,2000,5.51,2.28,6.67,3040,7.41,2.21,4.72,3030,10.5,,,,
O=C(/C=C1\C(=O)N(Cc2ccccc2)c2ccccc21)c1ccc(OCCN2CCCCC2)cc1,2070,4.05,3,9.91,1920,3.88,3.14,11.7,1850,3.92,,,,
NC(=O)c1cccc(OCC(O)CO)c1 (stereo not given),,> 100,,> 100,,> 100,,> 100,,> 100,,,,
c1ccc(SC23C4C5C6C4C2C6C53)nc1 (stereo not given),,,,,,,,,,,> 100,> 100,> 100,> 100
CC1(C)OC(=O)C(C#N)=C1C[n+]1ccccc1,,,,> 10,,> 10,,> 10,,> 10,,,,
CC(=O)/C=C/C1=C(c2csc3ccccc23)c2ccccc2CC1,22900,55,35,> 100,22800,69.5,21.8,72.7,29900,> 100,,,,
COc1cc(OC)c(OC)cc1/C=C/c1cnnc2ccccc12,,> 10,,> 10,,> 10,,> 10,,> 10,,,,
Cc1ccc2c(c1)C(=O)c1c-2c(OCCCN(C)C)nc2ccccc12,6020,20.2,4.24,19.8,1640,5.45,1.24,6.53,2260,7.65,,,,
C[C@H]1CNC(=O)c2cnn3ccc(nc23)N[C@H](C)c2cc(F)ccc2O1,1100,2.52,0.325,2.76,514,13,8.63,47.4,1530,> 67,,,,
COc1ccc(/C=C2\SC(=Nc3ccccc3)NC2=O)cc1,45700,> 100,4.32,40.7,4580,38.7,4.61,> 100,7690,> 100,,,,
Cc1ccc(NC(=O)/C(Cc2cc(=O)oc3cc(O)ccc23)=N\NC(C)(C)C)cc1C,,> 100,,> 100,,> 100,,> 100,,> 100,,,,
CC([C@H]1CC=C2C3CCC4=C[C@@H](N(C)C)CC[C@]4(C)C3CC[C@@]21C)N(C)C (stereo not given in full),3540,15.4,3.24,13.6,2330,7.9,4.25,18.2,2150,7.72,,,,
COc1cc(C(=O)O[C@H](C(=O)NCCN(C)CCNC(=O)[C@@H](OC(=O)c2cc(OC)cc3c(C)cccc23)[C@]2(C)CO2)[C@]2(C)CO2)c2cccc(C)c2c1,342,4.85,0.304,> 100,264,1.58,< 0.0506,1.3,,,,,,
CN(C)CCCC1(c2ccc(F)cc2)OCc2cc(-c3cc4ccccc4s3)ccc21 (stereo not given),2030,3.89,1.8,3.96,1520,2.95,1.74,3.25,1500,2.99,,,,
COc1ccc2c(c1OC)C(C(Cl)(Cl)Cl)N1CCc3cc4c(cc3C1=C2)OCO4 (stereo not given),,8.63,,> 100,,> 100,,> 100,,> 100,,,,
Cn1c(-c2ccccc2)c(/C=C/C2=[N+](C)c3ccccc3C2(C)C)c2ccccc21,476,3.71,1.08,16.6,2180,22.8,9.8,72.3,575,9.16,,,,
COC(=O)C(=O)C(C(=O)C(=O)Nc1ccccc1OC)c1nc2ccc([N+](=O)[O-])cc2[nH]c1=O (stereo not given),,> 100,,> 100,,> 100,,> 100,,> 100,,,,
CCCCCC[C@@H](C)NC(=O)c1ccc(Nc2nc3ccccc3c3occc23)cc1,2350,7.61,3.79,> 100,10200,> 100,2.53,> 100,3450,> 100,,,,
C[n+]1c2ccccc2nc2ccccc21,2260,10.8,0.953,3.72,359,2.12,1.68,6.91,1060,12,,,,
NC(N)=NC(N)=NCCCc1ccco1,39600,152,96,383,68800,198,66.4,247,> 500000,> 500,,,,
Cc1ccc(S(=O)(=O)c2ccc(C)cc2[N+](=O)[O-])cc1,,,,,,,,,,,73.3,> 100,> 100,> 100
C=C1C(=O)O[C@H]2[C@H]1CC/C(COC(=O)CCCc1c[nH]c3ccccc13)=C\CC[C@@]1(C)O[C@@H]21,1370,3.06,3.19,20.9,1780,3.7,2.9,10.9,1920,4.62,,,,
